According to ChEMBL document CHEMBL1201862, “PubChem BioAssay data set” (2004):
Active and inactive are the calls of the source. Cut-off read from the data, not from the text of the source, for most assays here: actives have a measured IC50 and inactives only a lower limit.

Experiments:
Assay type in all cases: functional
[1] = molecular target: T1, Apoptotic protease-activating factor 1 (Homo sapiens, UniProt O14727); assay: SAR analysis of small molecule Activators of Apaf-1 in a Fluorescent assay.; conditions: read-out: EC50_Mean;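 note: caspase-3 cleavage of fluorogenic Rh110 DEVD substrate downstream of apoptosome activation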
T1 sequence (O14727 whole entry): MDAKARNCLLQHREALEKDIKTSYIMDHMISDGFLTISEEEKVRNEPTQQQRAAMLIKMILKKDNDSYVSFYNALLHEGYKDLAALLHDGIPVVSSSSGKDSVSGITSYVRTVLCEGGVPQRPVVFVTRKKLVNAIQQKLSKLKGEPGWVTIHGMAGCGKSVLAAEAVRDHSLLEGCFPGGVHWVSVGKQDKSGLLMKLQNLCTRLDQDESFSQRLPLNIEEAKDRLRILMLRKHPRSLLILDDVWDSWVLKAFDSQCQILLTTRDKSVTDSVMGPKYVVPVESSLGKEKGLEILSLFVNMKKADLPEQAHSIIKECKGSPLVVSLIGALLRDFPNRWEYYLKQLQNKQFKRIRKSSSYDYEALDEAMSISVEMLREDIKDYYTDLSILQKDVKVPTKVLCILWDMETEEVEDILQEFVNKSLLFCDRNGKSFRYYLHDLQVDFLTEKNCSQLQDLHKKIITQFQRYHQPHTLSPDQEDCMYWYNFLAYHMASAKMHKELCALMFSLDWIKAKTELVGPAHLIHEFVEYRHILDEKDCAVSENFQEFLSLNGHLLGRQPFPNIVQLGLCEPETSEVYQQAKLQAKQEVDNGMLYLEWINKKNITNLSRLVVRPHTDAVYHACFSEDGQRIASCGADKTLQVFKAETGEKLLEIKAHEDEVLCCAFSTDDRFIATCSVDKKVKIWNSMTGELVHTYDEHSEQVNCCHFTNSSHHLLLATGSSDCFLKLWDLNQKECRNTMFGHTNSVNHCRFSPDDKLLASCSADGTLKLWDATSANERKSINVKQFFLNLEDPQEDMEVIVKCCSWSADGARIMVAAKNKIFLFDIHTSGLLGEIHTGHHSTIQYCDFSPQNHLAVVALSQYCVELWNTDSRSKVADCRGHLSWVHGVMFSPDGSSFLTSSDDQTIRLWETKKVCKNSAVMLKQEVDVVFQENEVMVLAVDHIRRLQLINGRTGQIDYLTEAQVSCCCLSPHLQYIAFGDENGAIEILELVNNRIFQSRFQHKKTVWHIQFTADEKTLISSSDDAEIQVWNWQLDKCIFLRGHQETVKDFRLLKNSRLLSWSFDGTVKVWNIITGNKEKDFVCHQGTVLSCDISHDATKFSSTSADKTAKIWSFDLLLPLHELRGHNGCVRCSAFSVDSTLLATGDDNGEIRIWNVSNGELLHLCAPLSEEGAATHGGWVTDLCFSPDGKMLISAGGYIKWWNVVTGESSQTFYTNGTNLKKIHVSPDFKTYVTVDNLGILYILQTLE

Caspase-3 [2] = molecular target: T2, Caspase-3 (Homo sapiens, UniProt P42574); assay: SAR Analysis of small molecule inhibitors of Sentrin-specific proteases (SENPs) using a Caspase-3 Selectivity assay. [Related pubchem assays (depositor defined):AID2540, AID2599, AID434973, AID489001]
T2 sequence (P42574 whole entry): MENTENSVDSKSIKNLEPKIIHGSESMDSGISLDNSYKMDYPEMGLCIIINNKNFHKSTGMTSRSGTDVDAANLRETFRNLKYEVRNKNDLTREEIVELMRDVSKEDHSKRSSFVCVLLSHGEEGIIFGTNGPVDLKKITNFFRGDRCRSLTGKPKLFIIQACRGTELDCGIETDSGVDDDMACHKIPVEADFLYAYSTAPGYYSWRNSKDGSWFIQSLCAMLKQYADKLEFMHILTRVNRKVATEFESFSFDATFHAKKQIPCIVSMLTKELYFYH

[3] = molecular target: T3, Sentrin-specific protease 7 (Homo sapiens, UniProt Q9BQF6); assay: inhibition of human SENP7 cleavage activity – biochemical, luminescence, set 2, SAR follow-up (AID 588600)
T3 sequence (Q9BQF6 whole entry): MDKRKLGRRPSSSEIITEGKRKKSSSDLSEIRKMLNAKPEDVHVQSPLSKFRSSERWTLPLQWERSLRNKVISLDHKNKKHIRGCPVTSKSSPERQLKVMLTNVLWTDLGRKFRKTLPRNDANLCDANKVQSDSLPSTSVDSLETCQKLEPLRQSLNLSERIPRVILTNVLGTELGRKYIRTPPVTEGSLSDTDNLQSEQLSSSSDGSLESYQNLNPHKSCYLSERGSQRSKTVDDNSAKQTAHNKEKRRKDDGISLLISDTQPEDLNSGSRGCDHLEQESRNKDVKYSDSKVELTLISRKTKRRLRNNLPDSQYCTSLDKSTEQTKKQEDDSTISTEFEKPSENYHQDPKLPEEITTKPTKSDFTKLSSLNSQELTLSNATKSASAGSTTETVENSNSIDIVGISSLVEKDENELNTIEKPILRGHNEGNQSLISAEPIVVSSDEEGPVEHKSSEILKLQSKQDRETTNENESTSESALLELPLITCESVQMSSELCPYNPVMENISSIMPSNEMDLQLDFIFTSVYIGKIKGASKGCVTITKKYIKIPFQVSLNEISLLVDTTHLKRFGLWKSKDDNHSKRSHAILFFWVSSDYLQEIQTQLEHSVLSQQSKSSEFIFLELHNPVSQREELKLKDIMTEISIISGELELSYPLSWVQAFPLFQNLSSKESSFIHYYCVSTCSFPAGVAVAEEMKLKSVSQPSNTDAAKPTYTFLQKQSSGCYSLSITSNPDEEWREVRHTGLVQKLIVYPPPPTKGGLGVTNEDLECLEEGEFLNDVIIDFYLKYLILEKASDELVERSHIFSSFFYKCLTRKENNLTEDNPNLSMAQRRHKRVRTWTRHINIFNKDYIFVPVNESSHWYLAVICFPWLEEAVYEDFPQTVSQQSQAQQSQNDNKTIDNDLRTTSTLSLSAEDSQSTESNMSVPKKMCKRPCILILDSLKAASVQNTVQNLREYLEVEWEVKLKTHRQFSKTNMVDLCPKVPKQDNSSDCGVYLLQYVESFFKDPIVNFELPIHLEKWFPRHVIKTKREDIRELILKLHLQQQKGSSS

[4] = molecular target: T4, Sentrin-specific protease 6 (Homo sapiens, UniProt Q9GZR1); assay: inhibition of human SENP6 catalytic domain – biochemical, luminescence, set 2, SAR follow-up (AID 588598)
T4 sequence (Q9GZR1 whole entry): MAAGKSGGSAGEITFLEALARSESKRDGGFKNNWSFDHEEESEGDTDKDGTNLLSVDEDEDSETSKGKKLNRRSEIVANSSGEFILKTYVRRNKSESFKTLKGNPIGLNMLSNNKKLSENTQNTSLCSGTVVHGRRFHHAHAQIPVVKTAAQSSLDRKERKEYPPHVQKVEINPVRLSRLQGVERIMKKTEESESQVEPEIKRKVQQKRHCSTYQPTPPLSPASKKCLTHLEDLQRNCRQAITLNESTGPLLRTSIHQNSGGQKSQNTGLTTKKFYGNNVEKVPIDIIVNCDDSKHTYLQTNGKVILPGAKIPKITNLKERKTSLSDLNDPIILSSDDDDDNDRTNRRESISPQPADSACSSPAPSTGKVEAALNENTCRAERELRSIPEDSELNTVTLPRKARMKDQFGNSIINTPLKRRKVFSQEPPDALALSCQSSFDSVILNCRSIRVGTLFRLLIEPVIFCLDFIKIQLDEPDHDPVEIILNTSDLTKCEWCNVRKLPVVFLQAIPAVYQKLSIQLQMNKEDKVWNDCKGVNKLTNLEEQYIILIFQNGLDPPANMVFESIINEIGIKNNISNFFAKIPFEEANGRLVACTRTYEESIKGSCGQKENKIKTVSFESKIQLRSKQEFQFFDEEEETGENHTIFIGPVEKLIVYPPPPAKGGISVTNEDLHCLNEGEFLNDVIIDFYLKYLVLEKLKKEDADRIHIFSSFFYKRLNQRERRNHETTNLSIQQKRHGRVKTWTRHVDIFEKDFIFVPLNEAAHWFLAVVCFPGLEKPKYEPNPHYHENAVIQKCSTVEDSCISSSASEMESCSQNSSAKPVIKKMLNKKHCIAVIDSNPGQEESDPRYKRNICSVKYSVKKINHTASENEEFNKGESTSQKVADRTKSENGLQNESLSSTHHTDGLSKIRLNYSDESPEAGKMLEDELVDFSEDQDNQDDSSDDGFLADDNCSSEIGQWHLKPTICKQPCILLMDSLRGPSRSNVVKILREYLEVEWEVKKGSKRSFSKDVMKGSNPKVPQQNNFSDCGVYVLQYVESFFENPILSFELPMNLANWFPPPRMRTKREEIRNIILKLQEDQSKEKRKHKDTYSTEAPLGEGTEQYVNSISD

Caspase-3 [5] = molecular target: T2, Caspase-3; assay: inhibition of recombinant caspase-3 activity – biochemical, luminescence, set 2, selectivity assay for SENP protease inhibitor project, SAR follow-up (AID 588599)
[6] = molecular target: T3, Sentrin-specific protease 7; assay: inhibition of human SENP7 cleavage activity – biochemical, luminescence, SAR follow-up (AID 504497)
[7] = molecular target: T5, Sentrin-specific protease 8 (Homo sapiens, UniProt Q96LD8); assay: inhibition of human SENP8 cleavage activity – biochemical, luminescence, SAR follow-up (AID 504501)
T5 sequence (Q96LD8 whole entry): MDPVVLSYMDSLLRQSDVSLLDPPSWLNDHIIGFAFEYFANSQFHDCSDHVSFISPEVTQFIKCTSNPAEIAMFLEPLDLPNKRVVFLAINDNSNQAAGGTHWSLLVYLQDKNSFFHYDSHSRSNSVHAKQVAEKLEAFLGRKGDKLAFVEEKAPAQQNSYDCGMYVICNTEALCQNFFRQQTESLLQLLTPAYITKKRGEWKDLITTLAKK

[8] = molecular target: T4, Sentrin-specific protease 6; assay: SAR Analysis of small molecule inhibitors of Sentrin-specific protease 6 (SENP6) using a Luminescent assay. [Related pubchem assays (depositor defined):AID2582, AID2599]
[9] = molecular target: T5, Sentrin-specific protease 8; assay: inhibition of sentrin protease 8 – biochemical, luminescence, set 2, SAR follow-up (AID 588601)
[10] = molecular target: T6, Neuropeptides B/W receptor type 1 (Homo sapiens, UniProt P48145); assay: human NPBW1 receptor blockade, IC50 – cell-based, fluorescence, dose response, set 6, late-stage follow-up (AID 588583)
T6 sequence (P48145 whole entry): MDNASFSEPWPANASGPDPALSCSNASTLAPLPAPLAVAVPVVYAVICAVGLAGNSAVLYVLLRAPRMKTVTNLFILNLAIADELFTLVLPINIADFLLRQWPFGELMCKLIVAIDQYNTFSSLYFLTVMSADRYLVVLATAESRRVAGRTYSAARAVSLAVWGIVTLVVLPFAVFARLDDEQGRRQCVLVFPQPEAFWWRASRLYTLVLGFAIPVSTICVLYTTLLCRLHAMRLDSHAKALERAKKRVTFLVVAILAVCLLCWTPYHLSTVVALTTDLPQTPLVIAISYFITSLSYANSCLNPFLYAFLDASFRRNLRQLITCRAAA

[11] = molecular target: Melanin-concentrating hormone receptor 1 (Homo sapiens, UniProt Q99705); assay: Late-stage fluorescence-based counterscreen for antagonists of the G-protein coupled receptor 7 (GPR7): cell-based dose response assay to identify antagonists of the melanin-concentrating hormone receptor 1 (MCHR1) Set 6.
Sequence of Melanin-concentrating hormone receptor 1 (Q99705 whole entry): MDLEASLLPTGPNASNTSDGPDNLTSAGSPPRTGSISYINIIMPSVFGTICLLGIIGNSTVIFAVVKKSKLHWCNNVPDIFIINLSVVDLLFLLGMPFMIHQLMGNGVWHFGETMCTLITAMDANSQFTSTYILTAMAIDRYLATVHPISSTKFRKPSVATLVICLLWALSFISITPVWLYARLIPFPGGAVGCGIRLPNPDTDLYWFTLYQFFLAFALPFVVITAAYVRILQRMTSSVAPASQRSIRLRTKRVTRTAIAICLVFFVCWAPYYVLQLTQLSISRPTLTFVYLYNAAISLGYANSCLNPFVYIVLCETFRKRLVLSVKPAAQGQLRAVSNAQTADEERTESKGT

Aurora kinase A = Aurora kinase A (Homo sapiens, UniProt O14965);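 note: value from the Navigating the Kinome kinase panel profiling, panel entry STK6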
Sequence of Aurora kinase A (O14965 whole entry): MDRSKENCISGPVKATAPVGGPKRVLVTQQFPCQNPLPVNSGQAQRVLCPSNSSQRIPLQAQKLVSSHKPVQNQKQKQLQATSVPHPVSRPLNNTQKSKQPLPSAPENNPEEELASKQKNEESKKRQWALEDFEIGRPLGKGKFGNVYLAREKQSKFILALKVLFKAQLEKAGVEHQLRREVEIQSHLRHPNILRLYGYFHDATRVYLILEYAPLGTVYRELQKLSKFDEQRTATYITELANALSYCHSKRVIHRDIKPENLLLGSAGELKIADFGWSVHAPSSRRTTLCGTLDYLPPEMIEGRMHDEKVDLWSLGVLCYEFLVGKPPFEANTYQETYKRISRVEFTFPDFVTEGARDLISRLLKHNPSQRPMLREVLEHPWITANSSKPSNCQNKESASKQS

[12] = molecular target: Vascular endothelial growth factor receptor 2 (Homo sapiens, UniProt P35968)
Sequence of Vascular endothelial growth factor receptor 2 (P35968 whole entry): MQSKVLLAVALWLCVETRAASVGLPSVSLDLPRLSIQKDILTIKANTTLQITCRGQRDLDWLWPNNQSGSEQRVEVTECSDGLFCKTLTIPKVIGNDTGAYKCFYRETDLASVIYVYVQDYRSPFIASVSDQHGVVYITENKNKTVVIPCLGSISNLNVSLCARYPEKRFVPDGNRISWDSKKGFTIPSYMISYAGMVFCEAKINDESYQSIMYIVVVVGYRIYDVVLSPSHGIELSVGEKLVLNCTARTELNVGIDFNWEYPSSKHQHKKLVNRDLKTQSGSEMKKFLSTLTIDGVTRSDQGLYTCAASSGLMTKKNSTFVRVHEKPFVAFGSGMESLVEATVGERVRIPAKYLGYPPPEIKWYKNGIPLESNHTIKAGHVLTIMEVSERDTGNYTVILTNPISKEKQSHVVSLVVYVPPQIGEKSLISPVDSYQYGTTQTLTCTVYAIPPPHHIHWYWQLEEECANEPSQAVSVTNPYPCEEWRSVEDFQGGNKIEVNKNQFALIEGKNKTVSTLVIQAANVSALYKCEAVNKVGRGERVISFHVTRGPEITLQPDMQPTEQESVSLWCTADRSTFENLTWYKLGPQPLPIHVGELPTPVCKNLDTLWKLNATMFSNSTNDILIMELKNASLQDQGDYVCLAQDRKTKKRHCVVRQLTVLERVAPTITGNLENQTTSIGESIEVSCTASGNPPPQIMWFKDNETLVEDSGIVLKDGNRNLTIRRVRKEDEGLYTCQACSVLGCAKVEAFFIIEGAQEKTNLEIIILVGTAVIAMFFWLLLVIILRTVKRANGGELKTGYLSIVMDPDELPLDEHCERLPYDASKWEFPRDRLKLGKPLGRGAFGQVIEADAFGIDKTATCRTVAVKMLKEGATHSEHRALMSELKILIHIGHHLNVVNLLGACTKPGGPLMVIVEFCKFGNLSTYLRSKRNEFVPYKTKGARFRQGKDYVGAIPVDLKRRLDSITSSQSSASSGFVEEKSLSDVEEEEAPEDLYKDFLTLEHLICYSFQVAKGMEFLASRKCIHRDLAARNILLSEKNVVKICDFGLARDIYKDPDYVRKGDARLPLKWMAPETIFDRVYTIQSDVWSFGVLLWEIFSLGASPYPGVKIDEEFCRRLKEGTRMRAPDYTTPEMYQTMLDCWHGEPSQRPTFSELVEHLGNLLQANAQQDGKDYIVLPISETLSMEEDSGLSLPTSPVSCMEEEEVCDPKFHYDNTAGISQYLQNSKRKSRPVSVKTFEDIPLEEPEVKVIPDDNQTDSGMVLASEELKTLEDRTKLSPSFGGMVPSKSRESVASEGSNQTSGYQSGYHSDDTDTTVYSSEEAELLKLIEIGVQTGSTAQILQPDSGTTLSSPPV

Aurora kinase B = Aurora kinase B (Homo sapiens, UniProt Q96GD4)
Sequence of Aurora kinase B (Q96GD4 whole entry): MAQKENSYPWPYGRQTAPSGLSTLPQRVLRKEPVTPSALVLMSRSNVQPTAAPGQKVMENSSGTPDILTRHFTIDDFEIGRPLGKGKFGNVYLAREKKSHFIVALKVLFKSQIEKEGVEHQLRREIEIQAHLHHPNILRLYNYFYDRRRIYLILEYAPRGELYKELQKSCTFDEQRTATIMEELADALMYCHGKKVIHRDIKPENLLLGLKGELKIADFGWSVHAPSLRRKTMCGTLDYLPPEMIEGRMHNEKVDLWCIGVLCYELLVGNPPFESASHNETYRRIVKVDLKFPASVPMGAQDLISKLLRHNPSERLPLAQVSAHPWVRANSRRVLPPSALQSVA

SMILES | IC50 (Caspase-3 [2]) | IC50 [3] | IC50 [4] | IC50 (Caspase-3 [5]) | IC50 [6] | IC50 [7] | IC50 [8] | IC50 [9] | IC50 [10] | IC50 [11] | further results
CCOc1ccccc1NC(=O)CCS(=O)(=O)c1ccc2c(c1)oc(=O)n2C |  |  |  |  |  |  |  |  |  |  | EC50 [1]: > 100 µM (inactive)
CCCCc1ccc2nc(NC(=O)c3ccsc3)sc2c1 | 6.2 µM (active) | 1.96 µM (active) | 1.84 µM (active) | 5.28 µM (active) | 1.9 µM (active) | 3.1 µM (active) | 2.8 µM (active) | 1.8 µM (active) |  |  | 
Cc1cccc(-c2nc(/C=C/c3ccccc3)no2)c1 | 52 µM (active) | 14.9 µM (active) | 16.7 µM (active) | 48.6 µM (active) | 16 µM (active) | 48 µM (active) | 49 µM (active) | 16.7 µM (active) |  |  | 
COc1ccc(Oc2c(CO)cnn(Cc3cccc4ccccc34)c2=O)cc1 |  |  |  |  |  |  |  |  | 2.99 µM (active) | 2.99 µM (active) | 
N#CC(c1cccs1)c1c(Cl)cnn(Cc2cccc3ccccc23)c1=O (centres undefined) |  |  |  |  |  |  |  |  | 1.07 µM (active) | 1.07 µM (active) | 
Cc1ccc(-c2nc3ccc(Br)cc3c(C(=O)O)c2CC(=O)O)cc1 |  |  |  |  |  |  |  |  |  |  | Ki (Aurora kinase A): 0.0794 µM (active); Ki [12]: 0.501 µM (active); Ki (Aurora kinase B): 0.158 µM (active)
